This is an account of results in patent publication US20070032460A1, “Use of voacamine and related compounds in the treatment of malaria” (priority 2005, published 2007).

Like-named read-outs stand apart in the source and are kept apart here.

For data set [1] the following is noted: doses of 2000 and 5000 mg/day; cited from earlier work.
Data set [2] relates to CQ-sensitive (D6) strain of P. falciparum. It is filed as cell-based.
In another data set the test system is Plasmodium falciparum. The settings on record: verapamil alone, without chloroquine; cited from earlier work.
The mark [3] stands for this setting: chloroquine-sensitive strain of P. falciparum, in vitro, Table V, read-out: IC50 (10^−7 M) S.
The mark [4] stands for this setting: Plasmodium falciparum, D6, chloroquine-sensitive strain of P. falciparum, in vitro, Table V, read-out: IC50 (10^−7 M) S.

As to `CC=C1CN(C)C2Cc3c([nH]c4ccccc34)C(c3cc4[nH]c5c(c4cc3OC)CCN3CC4CC(CC)C3C5(C(=O)OC)C4)CC1C2C(=O)OC` (centres unmarked) [VOA, Voacamine], in data set [1], the “toxicity in prior studies” value is reported as “minimal toxicity”. The IC50 in data set [2] (Plasmodium falciparum, D6, read-out: IC50 (10^−7 M) S, chloroquine-sensitive strain of P. falciparum, in vitro, Table V) was 240 nM; in data set [2] (Plasmodium falciparum, D6, read-out: IC50, single drug, S strain (D6), drug alone, Table 1, mean ± S.D., three experiments) it was 238 ± 23.7 nM; in data set [2] (Plasmodium falciparum, D6, read-out: IC50, single drug, S strain (D6), drug alone, Table II, mean ± S.D., three experiments), 298 ± 59.8 nM; in data set [2] (Plasmodium falciparum, D6, read-out: IC50 of each drug in combination VOA (1.0 μM) CQ (0.3 μM), S strain (D6), VOA/CQ ratio 10:3), 56.9 ± 8.2 nM; in data set [2] (Plasmodium falciparum, D6, read-out: IC50 of each drug in combination VOA (1.0 μM) QHS (0.3 μM), S strain (D6), VOA/QHS ratio 10:3), 87.2 ± 9.5 nM; in data set [2] (Plasmodium falciparum, D6, read-out: IC50 of each drug in combination VOA (2.0 μM) CQ (0.2 μM), S strain (D6), VOA/CQ ratio 10:1), 114 ± 25.1 nM. The IC50 is 114 ± 5.6 nM in data set [2] (Plasmodium falciparum, D6, read-out: IC50 of each drug in combination VOA (2.0 μM) QHS (0.2 μM), S strain (D6), VOA/QHS ratio 10:1); 223 ± 35.8 nM in data set [2] (Plasmodium falciparum, D6, read-out: IC50 of each drug in combination VOA (3.0 μM) CQ (0.1 μM), S strain (D6), VOA/CQ ratio 30:1); 240 ± 45.3 nM in data set [2] (Plasmodium falciparum, D6, read-out: IC50 of each drug in combination VOA (3.0 μM) QHS (0.1 μM), S strain (D6), VOA/QHS ratio 30:1).
Take `COc1ccc(CCN(C)CCCC(C#N)(c2ccc(OC)c(OC)c2)C(C)C)cc1OC` (centres unmarked) [verapamil]: in the data set on Plasmodium falciparum, the “effect on malaria, drug alone” value is given as “no effect”.
As to Ervahanine, the IC50 in data set [2] (setting [3]) is 680 nM.
For `C/C=C1/CN(C)[C@H]2Cc3c([nH]c4ccccc34)C(=O)C[C@H]1[C@@H]2C(=O)OC` [VOB, Vobasine], the IC50 in data set [2] (setting [4]) stood at 470 nM.
For `C[C@@H]1CC[C@H]2[C@@H](C)C(=O)O[C@@H]3O[C@@]4(C)CC[C@@H]1[C@]32OO4` [QHS, qinghaosu, reference compound], the IC50 in data set [2] (S strain (D6), VOA/QHS ratio 10:1, read-out: IC50 of each drug in combination VOA (2.0 μM) QHS (0.2 μM)) worked out at 14.6 ± 0.8 nM; in data set [2] (S strain (D6), VOA/QHS ratio 10:3, read-out: IC50 of each drug in combination VOA (1.0 μM) QHS (0.3 μM)), 25.9 ± 2.5 nM; in data set [2] (S strain (D6), VOA/QHS ratio 30:1, read-out: IC50 of each drug in combination VOA (3.0 μM) QHS (0.1 μM)) it was 9.7 ± 2.3 nM; in data set [2] (S strain (D6), drug alone, Table II, mean ± S.D., three experiments, read-out: IC50, single drug), 38.3 ± 4.7 nM.
For Voacamidine [VDN], the IC50 in data set [2] (setting [3]) worked out at 510 nM.
The same measure, in the same setting: next, Decarbomethoxyvoacamine [DCV]: 490 nM.
As for Tabernamine, the IC50 in data set [2] (setting [3]) is 650 nM.
On the same count and under the same terms, under N6Demethylvoacamine [NDV] stands 470 nM.
Regarding `CCN(CC)CCCC(C)Nc1ccnc2cc(Cl)ccc12` (centres unmarked) [CQ, chloroquine, reference compound], the IC50 in data set [2] (Plasmodium falciparum, D6, read-out: IC50, single drug) turned out to be 28.5 ± 3.5 nM; in data set [2] (Plasmodium falciparum, D6, read-out: IC50 of each drug in combination VOA (1.0 μM) CQ (0.3 μM)) it was 15.9 ± 2.7 nM; in data set [2] (Plasmodium falciparum, D6, read-out: IC50 of each drug in combination VOA (2.0 μM) CQ (0.2 μM)), 13.5 ± 2.9 nM; in data set [2] (Plasmodium falciparum, D6, read-out: IC50 of each drug in combination VOA (3.0 μM) CQ (0.1 μM)), 8.2 ± 1.5 nM.
For `CC[C@H]1C[C@@H]2CN3CCc4c([nH]c5ccccc45)[C@](C(=O)OC)(C2)[C@H]13` [COR, Coronaridine], in data set [2] (setting [4]), the IC50 was 500 nM.
